What was measured:
Type in all cases: in vivo
[1] = system: Amaranthus palmeri having an Arg128Met mutation in PPO2; test: Foliar treatment 21 days after sowing weed and soybean, greenhouse pot test (Example 3); details: 10, 20, 40, or 80 g/ha foliar treatment 21 days after sowing, 200 L/ha aqueous dilution; examined 14 days after the treatment
From the text: Amaranthus palmeri having an Arg128Met mutation in PPO2 and soybean are sown in a plastic pot. Then, the weeds and soybean are cultivated in a greenhouse. A compound X is applied in an amount of 10, 20, 40, or 80 g/ha by spraying 200 L/ha of an aqueous dilution containing the compound X to perform foliar treatment 21 days after the sowing. Then, the weeds and soybean are cultivated in a greenhouse to examine the effects on the weeds and phytotoxic effects on soybean 14 days after the treatment.

[2] = system: Amaranthus palmeri having an Arg128Met mutation in PPO2; test: Soil surface treatment on the day weed and soybean are sown, greenhouse pot test (Example 2); details: 10, 20, 40, or 80 g/ha applied to soil surface on day of sowing, 200 L/ha aqueous dilution; examined after 21 days
From the text: Amaranthus palmeri having an Arg128Met mutation in PPO2 and soybean are sown in a plastic pot. On the same day, a compound X is applied to the surface of soil in an amount of 10, 20, 40, or 80 g/ha by spraying 200 L/ha of an aqueous dilution containing the compound X. Then, the weeds and soybean are cultivated in a greenhouse to examine the effects on the weeds and phytotoxic effects on soybean after 21 days.

[3] = system: Amaranthus palmeri having an Arg128Met mutation in PPO2; test: Soil surface treatment on the day the weed is sown, soybean sown 7 days later, greenhouse pot test (Example 1); details: 10, 20, 40, or 80 g/ha applied to soil surface, 200 L/ha aqueous dilution; soybean sown after 7 days; examined after 14 days
From the text: Amaranthus palmeri having an Arg128Met mutation in PPO2 is sown in a plastic pot. On the same day, a compound X is applied to the surface of soil in an amount of 10, 20, 40, or 80 g/ha by spraying 200 L/ha of an aqueous dilution containing the compound X. Then, the weeds are cultivated in a greenhouse and soybean seeds are sown after 7 days, to examine the effects on the weeds and phytotoxic effects on soybean after 14 days.

Measured: effects on the weeds (herbicidal effect)

CCOC(=O)COc1ncccc1Oc1cc(-n2c(=O)cc(C(F)(F)F)n(C)c2=O)c(F)cc1Cl [compound X, Ethyl [3-[2-chloro-4-fluoro-5-(1-methyl-6-trifluoromethyl-2,4-dioxo-1,2,3,4-tetrahydropyrimidine-3-yl)phenoxy]-2-pyridyloxy]acetate]
valuable effect: all assays above

— patent US11160279B2, “Method of controlling herbicide resistant weeds” (Sumitomo Chemical Company, Limited, priority 2018, dated 2021)
